From patent US11963961B2, “Combination therapy comprising an ACC inhibitor” (Gilead Sciences, Inc., priority 2017, dated 2024)
Read-outs that look alike come from different tables or passages of the source.

Key:
[1] = system: non-cirrhotic subjects with NASH; assay: Phase 2 randomized placebo-controlled trial of Compound 1 in NASH: imaging, liver biochemistry, serum fibrosis markers, tolerability; format: in vivo, human; conditions: for Liver stiffness by FibroScan, median relative change from baseline: W12, n = 40; for Hyaluronic acid, median relative change from baseline / PIII-NP, median relative change from baseline / TIMP-1, median relative change from baseline: W12, serum
Experimental: Methods: In this double-blind, placebo-controlled trial, 126 non-cirrhotic subjects with NASH diagnosed noninvasively by MRI proton density fat fraction (PDFF) ≥8% and liver stiffness ≥2.5 kPa by MR elastography (MRE), or historical liver biopsy consistent with NASH and stage 1 to 3 fibrosis, were randomized 2:2:1 to receive Compound 1 20 mg, Compound 1 5 mg, or placebo orally QD for 12 weeks ([…]). Centrally-read MRI-PDFF and MRE, and FibroScan and serum markers of fibrosis were measured at baseline and […]. In some subjects, liver stiffness and hepatic fat content by Controlled Attenuation Parameter (CAP) were assessed using transient elastography (FibroScan®; Echosens, Paris, France) at baseline (i.e. week 0) and week 12.

[2] = system: subjects with compensated cirrhosis due to NASH; assay: Proof-of-concept study of Compound 1 in compensated cirrhosis due to NASH; format: in vivo, human
Experimental: Methods: In a proof-of-concept study, 10 subjects with suspected compensated cirrhosis (Child-Turcotte-Pugh [CTP]-A) due to NASH (defined by any one of biopsy, liver stiffness by magnetic resonance elastography [MRE]≥4.67 kPa or transient elastography ≥14.0 kPa, or Fibrotest ≥0.75) received Compound 1 20 mg orally once daily for 12 weeks. Centrally-read magnetic resonance imaging-proton density fat fraction (MRI-PDFF) and MRE, and serum markers of fibrosis were measured at baseline (BL), Week 4 (W4), and Week 12 ([…]). For DNL determination, heavy water (^2H2O, 35 mL) was administered three times daily for one-week cycles prior to baseline, W4, and […]. Deuterium incorporation into palmitate was measured in fasting plasma samples by GC/MS, and mass isotopomer distribution analysis was used to calculate hepatic DNL and its inhibition by Compound 1.

[3] = system: subjects with steatosis and F1-F3 fibrosis / NASH; conditions: Compound 1 20 mg; for ≥30% reduction in MRI-PDFF, % of subjects: 12 weeks
Experimental: Ten subjects with steatosis (MRI-PDFF≥10%) and F1-F3 fibrosis (MRE≥2.88 kPa but non-cirrhotic based on FibroText <0.75, historical imaging and liver biopsy) were treated 20 mg Compound 1 for 12 weeks.
Four of the ten subjects were on fish oil or fenofibrate at baseline and continued the concomitant medication for the duration of the study. Throughout the study subjects were monitored for safety (adverse events, laboratory abnormalities), liver biochemistry, serum markers of fibrosis (ELF and its components TIMP-1, hyaluronic acid, PIII-NP) and cell death (CK18 M30 and M65), liver stiffness (MRE) and fat (MRI-PDFF) and the effect on de novo lipogensis was assessed using heavy water labeling.
The four subjects were analyzed in conjunction with eight subjects from the study described in Example 1. These twelve subjects were on fish oil or fibrates for at least six weeks of the study and included those who were on fish oil or fibrates at baseline or who had graded hypertriglyceridemia and were given fish oil or fibrates during the study.

[4] = Compound 1 5 mg orally QD, W12, n = 47
[5] = Compound 1 20 mg orally QD, W12, n = 46
[6] = Compound 1 20 mg, 5 mg, placebo, W12
[7] = split by fibrate/fish oil for > 6 weeks: without n = 47, with n = 12

COc1ccccc1[C@H](Cn1c(=O)n(C(C)(C)C(=O)O)c(=O)c2c(C)c(-c3ncco3)sc21)OC1CCOCC1 [Compound 1, (R)-2-(1-(2-(2-methoxyphenyl)-2-((tetrahydro-2H-pyran-4-yl)oxy)ethyl)-5-methyl-6-(oxazol-2-yl)-2,4-dioxo-1,2-dihydrothieno[2,3-d]pyrimidin-3(4H)-yl)-2-methylpropanoic acid]
ALT, median relative change from baseline ([1]; Compound 1 5 mg orally QD, W12): −9.8% | ≥30% reduction in MRI-PDFF, % of subjects ([1]; Compound 1 5 mg orally QD, W12 (11/47)): 23% | ≥15% reduction in MRE-stiffness, % of subjects ([1]; Compound 1 5 mg orally QD, W12 (19/47)): 40% | Liver stiffness by FibroScan, median relative change from baseline ([1]; Compound 1 5 mg orally QD): −8.4% | MRE-stiffness, median relative change from baseline [1, 4]: −9.6% | MRI-PDFF, median relative change from baseline [1, 4]: −13.0% | Hyaluronic acid, median relative change from baseline ([1]; Compound 1 5 mg orally QD): −0.7% | PIII-NP, median relative change from baseline ([1]; Compound 1 5 mg orally QD): −7.0% | TIMP-1, median relative change from baseline ([1]; Compound 1 5 mg orally QD): −2.9% | MRI-PDFF, differences from placebo ([1]; Compound 1 5 mg, W12): not statistically significant | Median alkaline phosphatase, change ([1]; Compound 1 5 mg, W12): unchanged | Hepatic steatosis by CAP (Controlled Attenuation Parameter) ([1]; Compound 1 20 mg and 5 mg, week 12, differences not statistically significant): Dose-dependent reductions | Tolerability ([1]; Compound 1 20 mg or 5 mg QD, 12 weeks): generally well-tolerated | ALT, median relative change from baseline ([1]; Compound 1 20 mg orally QD, W12): −20.5% | ≥15% reduction in MRE-stiffness, % of subjects ([1]; Compound 1 20 mg orally QD, W12 (15/46)): 33% | ≥30% reduction in MRI-PDFF, % of subjects ([1]; Compound 1 20 mg orally QD, W12 (22/46)): 48% | Liver stiffness by FibroScan, median relative change from baseline ([1]; Compound 1 20 mg orally QD): −11.1% | MRE-stiffness, median relative change from baseline [1, 5]: −5.5% | MRI-PDFF, median relative change from baseline [1, 5]: −28.9% | Hyaluronic acid, median relative change from baseline ([1]; Compound 1 20 mg orally QD): −6.9% | PIII-NP, median relative change from baseline ([1]; Compound 1 20 mg orally QD): −13.9% | TIMP-1, median relative change from baseline ([1]; Compound 1 20 mg orally QD): −7.9% | Liver stiffness by FibroScan, M probe, change from baseline to week 12 between treatment groups ([1]; Compound 1 20 mg, 5 mg, placebo): no differences | Changes in liver stiffness by MRE [1, 6]: did not differ between groups | Changes in other liver biochemistry tests and the composite ELF score among the treatment groups [1, 6]: not significantly different | MRI-PDFF compared with placebo ([1]; Compound 1 20 mg, W12): statistically and clinically significant decrease | Serum levels of TIMP-1 ([1]; Compound 1 20 mg, W12, p=0.022 vs placebo): significant reductions | Median alkaline phosphatase, increase ([1]; Compound 1 20 mg, W12, p≤0.001 vs placebo): 9% | Asymptomatic Grade 3 hypertriglyceridemia ([2]; Compound 1 20 mg once daily, 10 subjects, responded to fibrate therapy): One subject | Changes in MRE-stiffness or serum fibrosis markers ([2]; Compound 1 20 mg once daily, 12 weeks): No significant changes | Tolerability ([2]; Compound 1 20 mg once daily, 12 weeks, no premature discontinuation): well-tolerated | Other lipid parameters ([2]; Compound 1 20 mg once daily, BL to W12): unchanged | ≥30% relative decline in PDFF, % of subjects ([2]; Compound 1 20 mg once daily, W4, 5 of 10 subjects): 50% | ≥30% relative decline in PDFF, % of subjects ([2]; Compound 1 20 mg once daily, W12, 7 of 10 subjects): 70% | Fasting triglycerides, median ([2]; Compound 1 20 mg once daily, W12, IQR (142, 248), BL 147 (105, 231), P=0.008): 159 mg/dL | Hepatic PDFF (MRI-PDFF), median ([2]; Compound 1 20 mg orally once daily, W12, BL 9.2, P=0.004): 4.6% | Serum ALT, median ([2]; Compound 1 20 mg orally once daily, W12, BL 46, P=0.008): 32 U/L | ≥30% reduction in MRI-PDFF, % of subjects ([3]; all subjects (n = 59)): 49% | ≥30% reduction in MRI-PDFF, % of subjects [3, 7]: 43% | ALT, median relative change over 12 weeks ([3]; all subjects (n = 59)): −21.9% | ELF, median relative change over 12 weeks ([3]; all subjects (n = 59)): −0.8% | Fasting Glucose, median relative change over 12 weeks ([3]; all subjects (n = 59)): −2.0% | Hemoglobin A1c, median relative change over 12 weeks ([3]; all subjects (n = 59)): −1.4% | Hyaluronic acid, median relative change over 12 weeks ([3]; all subjects (n = 59)): −5.9% | MRE, median relative change over 12 weeks ([3]; all subjects (n = 59)): −6.6% | MRI-PDFF, median relative change over 12 weeks ([3]; all subjects (n = 59)): −31.0% | PIII-NP, median relative change over 12 weeks ([3]; all subjects (n = 59)): −13.9% | TIMP-1, median relative change over 12 weeks ([3]; all subjects (n = 59)): −8.8% | FibroScan, median relative change over 12 weeks ([3]; all subjects, only Phase 2 study of Example 1): −11.1% | ALT, median relative change over 12 weeks [3, 7]: −19.4% | ELF, median relative change over 12 weeks [3, 7]: −0.35% | Fasting Glucose, median relative change over 12 weeks [3, 7]: −1.9% | Hemoglobin A1c, median relative change over 12 weeks [3, 7]: −1.4% | Hyaluronic acid, median relative change over 12 weeks [3, 7]: −4.5% | MRE, median relative change over 12 weeks [3, 7]: −3.2% | MRI-PDFF, median relative change over 12 weeks [3, 7]: −27.9% | PIII-NP, median relative change over 12 weeks [3, 7]: −13.9% | TIMP-1, median relative change over 12 weeks [3, 7]: −7.85% | FibroScan, median relative change over 12 weeks ([3]; split by fibrate/fish oil for > 6 weeks, only Phase 2 study of Example 1, n = 6 with fibrate/fish oil): −9.8%
